Experimental data reported in patent publication US7358276B2, “2-Oxo-1-pyrrolidine derivatives, processes for preparing them and their uses” (UCB, S.A., priority 2000, dated 2008).

Experiments:
[1] = biological target: T1, Levetiracetam Binding Site (LBS), rat cerebral cortex membranes (Rattus norvegicus, UniProt Q02563); assay: LBS binding assay (competitive binding, [3H]-2-[4-(3-azidophenyl)-2-oxo-1-pyrrolidinyl]butanamide); conditions: 4° C., 120 min
T1 construct: The crude membrane pellet obtained is resuspended in 50 mmol/l Tris-HCl (pH 7.4); from tissue; host or cells: rat cerebral cortex crude membranes (male Sprague-Dawley)
T1 sequence (Q02563 whole entry): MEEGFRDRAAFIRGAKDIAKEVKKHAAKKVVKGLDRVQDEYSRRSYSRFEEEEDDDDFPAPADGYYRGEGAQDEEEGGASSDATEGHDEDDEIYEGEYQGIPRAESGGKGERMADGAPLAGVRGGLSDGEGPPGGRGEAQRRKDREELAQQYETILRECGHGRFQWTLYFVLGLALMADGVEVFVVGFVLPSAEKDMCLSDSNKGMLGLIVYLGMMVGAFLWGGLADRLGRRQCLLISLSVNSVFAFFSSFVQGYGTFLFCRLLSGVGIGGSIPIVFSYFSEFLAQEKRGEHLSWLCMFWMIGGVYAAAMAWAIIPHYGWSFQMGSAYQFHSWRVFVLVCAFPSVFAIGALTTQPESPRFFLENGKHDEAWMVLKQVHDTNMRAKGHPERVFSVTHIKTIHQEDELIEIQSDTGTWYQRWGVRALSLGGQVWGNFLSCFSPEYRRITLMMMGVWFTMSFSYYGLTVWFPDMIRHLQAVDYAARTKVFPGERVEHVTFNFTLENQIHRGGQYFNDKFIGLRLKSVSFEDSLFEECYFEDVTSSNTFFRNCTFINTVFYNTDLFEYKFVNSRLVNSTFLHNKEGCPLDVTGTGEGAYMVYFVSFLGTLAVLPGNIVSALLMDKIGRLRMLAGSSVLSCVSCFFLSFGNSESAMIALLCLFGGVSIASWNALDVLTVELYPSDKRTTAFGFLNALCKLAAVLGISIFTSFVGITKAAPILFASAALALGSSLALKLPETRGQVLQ

[2] = test system: audiogenic seizures in sound-susceptible mice; assay: Animal model of sound-susceptible mice (audiogenic seizures); assay type: in vivo; conditions: intraperitoneally 60 minutes before induction of audiogenic seizures; doses given in mol/kg
Source text: The activity of the compounds of formula I, or their pharmaceutically acceptable salts, as anticonvulsants can be determined in the audiogenic seizures model. The objective of this test is to evaluate the anticonvulsant potential of a compound by means of audiogenic seizures induced in sound-susceptible mice, a genetic animal model with reflex seizures. In this model of primary generalised epilepsy, seizures are evoked without electrical or chemical stimulation and the seizure types are, at least in part, similar in their clinical phenomenology to seizures occurring in man (Löscher W. & Schmidt D., Epilepsy Res. (1998), 2, p. 145-181; Buchhalter J. R., Epilepsia (1993), 34, S31-S41). Results obtained with compounds of formula I are indicative of a strong pharmacological effect.
The objective of this test is to evaluate the anticonvulsant potency of a compound in sound-susceptible mice, a genetic animal model with reflex seizures. In this model of primary generalised epilepsy, seizures are evoked without electrical or chemical stimulation and the seizure types are, at least in part, similar in their clinical phenomenology to seizures occuring in man (Löscher W. & Schmidt D., Epilepsy Res. (1998), 2, 145-181; Buchhalter J. R., Epilepsia (1993), 34, S31-S41).
Male or female genetically sound-sensitive mice (14-28 g; N=10), derived from a DBA strain originally selected by Dr. Lehmann of the Laboratory of Acoustic Physiology (Paris) and bred in the UCB Pharma Sector husbandry unit since 1978, are used. The experimental design consisted of several groups, one group receiving the vehicle control and the other groups different doses of the test-compound. The compounds are administered intraperitoneally 60 minutes before the induction of audiogenic seizures.
For testing, the animals are placed in small cages, one mouse per cage, in a sound-attenuated chamber. After a period of orientation of 30 seconds, the acoustic stimulus (90 dB, 10-20 kHz) is delivered for 30 seconds via loudspeakers positioned above each cage. During this interval, the mice are observed and the presence of the 3 phases of the seizure activity namely wild running, clonic and tonic convulsions, is recorded. The proportion of mice protected against wild running, clonic and tonic convulsions, respectively, is calculated.
For active compounds, an ED50 value, i.e. the dose producing 50% protection relative to the control group, together with 95% confidence limits, was calculated using a Probit Analysis (SAS/STAT® Software, version 6.09, PROBIT procedure) of the proportions of protected mice for each of the 3 phases of the seizure activity.

| Compound | melting point [°C] | pKi (affinity for the levetiracetam binding site) [1] | ED50 (dose producing 50% protection against audiogenic seizures) [2] |
| --- | --- | --- | --- |
| CC[C@@H](C(N)=O)N1CC(CF)CC1=O (stereo partly drawn) | 87.1 |  |  |
| CC[C@H](C(N)=O)N1CC(c2cccs2)CC1=O (stereo partly drawn) | 84 |  |  |
| CC[C@@H](C(N)=O)N1CC(c2cccc(N=[N+]=[N-])c2)CC1=O (single isomer, unassigned) [Compound 86] | 94.5 | Particular affinity | Particularly promising activity |
| CC[C@@H](C(N)=O)N1CC(C)CC1=O (stereo partly drawn) [35] | 73.9 |  |  |
| CC[C@@H](C(N)=O)N1CC(C)CC1=O (stereo partly drawn) [36] | 56.9 |  |  |
| CC[C@@H](C(N)=O)N1CC(CI)CC1=O (stereo partly drawn) [Compound 10, (2S)-2-[4-(iodomethyl)-2-oxo-1-pyrrolidinyl]butanamide] | 91.4 | Particular affinity | Particularly promising activity |
| CC[C@@H](C(N)=O)N1CC(c2ccccc2)CC1=O (stereo partly drawn) [Compound 22] | 89 | Particular affinity | Particularly promising activity |
| CC[C@@H](C(N)=O)N1CC(c2ccccc2)CC1=O (stereo partly drawn) [Compound 23] | 92.4 | Particular affinity | Particularly promising activity |
| CC[C@@H](C(N)=O)N1CC(CI)CC1=O (stereo partly drawn) [Compound 27] | 107.7 | Particular affinity | Particularly promising activity |
| CC[C@@H](C(N)=O)N1CC(CN=[N+]=[N-])CC1=O (stereo partly drawn) [Compound 32, (2S)-2-[4-(azidomethyl)-2-oxo-1-pyrrolidinyl]butanamide] | 84.8 | Particular affinity | Particularly promising activity |
| CCC(C(N)=O)N1CC(C=C(Br)Br)CC1=O (stereo not drawn) [Compound 33] | 134.8 | Particular affinity | Particularly promising activity |
| CC[C@@H](C(N)=O)N1CC(Cn2cnnn2)CC1=O (stereo partly drawn) [Compound 40, (2S)-2-[2-oxo-4-(1H-tetrazol-1-ylmethyl)-1-pyrrolidinyl]butanamide] | 82.3 | Particular affinity | Particularly promising activity |
| C=CC1CC(=O)N(C(CC)C(N)=O)C1 (stereo not drawn) [Compound 41] | 120.5 | Particular affinity | Particularly promising activity |
| CCC(C(N)=O)N1CC(c2nccs2)CC1=O (stereo not drawn) [Compound 64] | 94.3 | Particular affinity | Particularly promising activity |
| CC[C@@H](C(N)=O)N1CC(c2cccs2)CC1=O (stereo partly drawn) [Compound 71, (2S)-2-[2-oxo-4-(2-thienyl)-1-pyrrolidinyl]butanamide] | 69.3 | Particular affinity | Particularly promising activity |
| CC[C@@H](C(N)=O)N1CC(c2ccccc2OC)CC1=O (stereo partly drawn) [Compound 73] | 112 | Particular affinity |  |
| CC[C@@H](C(N)=O)N1CC(c2cccc(OC)c2)CC1=O (stereo partly drawn) [Compound 75] | 91.3 | Particular affinity |  |
| CC[C@@H](C(N)=O)N1CC(c2ccc(N=[N+]=[N-])cc2)CC1=O (stereo partly drawn) [Compound 81] | 91.4 | Particular affinity | Particularly promising activity |
| CC[C@@H](C(N)=O)N1CC(c2ccsc2)CC1=O (stereo partly drawn) [Compound 83] | 93 to 95 | Particular affinity |  |

| Compound | melting point [°C] | pKi (affinity for the levetiracetam binding site) [1] | ED50 (dose producing 50% protection against audiogenic seizures) [2] |
| --- | --- | --- | --- |
| CC[C@@H](C(N)=O)N1CC(c2cccc(N=[N+]=[N-])c2)CC1=O (stereo partly drawn) [Compound 87] | 98 | Particular affinity | Particularly promising activity |
| C=C[C@@H]1CC(=O)N([C@@H](CC)C(N)=O)C1 [Compound 92] | 79 | Particular affinity | Particularly promising activity |
| CCC(C(N)=O)N1CC(CI)CC1=O (stereo not drawn) [Compound 103] | 171.7 | Particular affinity |  |
| CCC(C(N)=O)N1CC(C=C(F)F)CC1=O (stereo not drawn) [Compound 156] |  | Particular affinity | Particularly promising activity |
| CCC(C(N)=O)N1CC(CC2CC2)CC1=O (stereo not drawn) [Compound 165] |  | Particular affinity | Particularly promising activity |
| CC[C@@H](C(N)=O)N1CC(CCc2ccccc2)CC1=O (stereo partly drawn) [Compound 175] | 89.5 | Particular affinity |  |
| CC[C@@H](C(N)=O)N1CC(CCc2ccccc2)CC1=O (stereo partly drawn) [Compound 176] | 100.2 | Particular affinity |  |
| CCC(C(N)=O)N1CC(c2cc(C(F)(F)F)cc(C(F)(F)F)c2)CC1=O (stereo not drawn) [Compound 185] | 148.6 | Particular affinity |  |
| CCC(C(N)=O)N1CC(c2ccco2)CC1=O (stereo not drawn) [Compound 195] |  | Particular affinity | Particularly promising activity |
| CCC(C(N)=O)N1CC(c2ccco2)CC1=O (stereo not drawn) [Compound 196] |  | Particular affinity | Particularly promising activity |
| CCCC1CC(=O)N(C(CC)C(N)=O)C1 (stereo not drawn) [Compound 201] |  | Particular affinity | Particularly promising activity |
| CC[C@@H](C(N)=O)N1CC(C=C(F)F)CC1=O (stereo partly drawn) [Compound 213, (2S)-2-(2-oxo-4-(2,2-difluorovinyl)-1-pyrrolidinyl)butanamide] |  | Particular affinity | Particularly promising activity |
| CC[C@@H](C(N)=O)N1CC(n2cccc2Br)CC1=O (stereo partly drawn) [Compound 234, (2S)-2-[4-(2-bromo-1H-pyrrol-1-yl)-2-oxo-1-pyrrolidinyl]butanamide] |  | Particular affinity | Particularly promising activity |
| CCC(C(N)=O)N1C[C@H](CC(C)(F)F)CC1=O (stereo partly drawn) [Compound 265, 2-[(4S)-4-(2,2-difluoropropyl)-2-oxopyrrolidinyl]butanamide] | 110.9 | Particular affinity |  |
| CCC(C(N)=O)N1CC(C#CBr)CC1=O (stereo not drawn) [Compound 267, 2-(4-bromo-ethynyl-2-oxo-1-pyrrolidinyl)butanamide] | 103.9 | Particular affinity |  |
| (2S)-2-(2-oxo-4-(2,2-difluorovinyl)-1-pyrrolidinyl)butanamide [Compound 222] |  | Particular affinity | Particularly promising activity |
| (2S)-2-[4-(iodomethyl)-2-oxo-1-pyrrolidinyl]propanamide [Compound 110] |  | Particular affinity | Particularly promising activity |
| (2S)-2-[4-(iodomethyl)-2-oxo-pyrrolidin-1-yl]pentanamide [Compound 105] |  | Particular affinity | Particularly promising activity |
